Source: patent US12084472B2 (Ardelyx, Inc., priority 2015, dated 2024)

The compounds below were run against T1, human TGR5 (Homo sapiens, UniProt Q8TDU6) (assay: Cell-based TGR5 assay (cAMP generation, HTRF)). Settings: HEK293 cells stably transfected with human TGR5; cAMP by HTRF; 30 minutes at 37° C.; read-out: pEC50 Human TGR5 (converted).
T1 construct: expressed in transfected cells; host or cells: HEK293
T1 sequence (Q8TDU6 1-330): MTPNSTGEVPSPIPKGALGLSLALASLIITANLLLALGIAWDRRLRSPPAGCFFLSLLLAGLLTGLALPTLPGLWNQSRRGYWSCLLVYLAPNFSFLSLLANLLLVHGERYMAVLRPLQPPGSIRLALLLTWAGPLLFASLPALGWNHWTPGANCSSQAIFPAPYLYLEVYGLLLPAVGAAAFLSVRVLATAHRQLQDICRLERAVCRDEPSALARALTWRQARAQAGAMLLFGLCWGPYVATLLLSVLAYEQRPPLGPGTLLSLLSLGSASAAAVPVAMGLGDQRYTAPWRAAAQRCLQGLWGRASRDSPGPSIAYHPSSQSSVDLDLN
Protocol: A primary cell-based assay utilized HEK293 cells stably transfected with a gene encoding human TGR5. Cells were treated with candidate TGR5 activators and assessed for increased intercellular levels of cAMP.
TGR5-mediated cAMP generation was measured using a homogeneous time resolved fluorescence (HTRF) detection method (Cisbio). Test compounds were dissolved in DMSO to a final concentration of 10 mM. Serial 3-fold dilutions of the stock solution were made in DMSO, and these solutions were diluted 100-fold into Hanks Balanced Salt Solution supplemented with 10 mM HEPES pH 7.4, 0.003% Tween 20 and 0.5 mM isobutyl methylxanthine. Five microliters of diluted test compounds were added to wells of a black 384 well plate.
Cells grown overnight at 37° C./5% CO2 were harvested and resuspended in Hanks Balanced Salt Solution containing 10 mM HEPES to a concentration of […]. Five microliters (2500 cells) were dispensed into each well of the 384 well plate containing compound dilutions and incubated at 37° C. for 30 minutes. Each compound was tested in duplicate at 12 concentrations ranging from 0.05 nM to 10 μM.
Following incubation with test compounds, cAMP was detected through the successive addition of 5 μL each of cAMP labeled with the modified allophyocyanin dye d2 (cAMP-d2) and cryptate-labeled anti-cAMP in lysis buffer, and reading HTRF per the manufacturer's instructions.
A standard curve was used to convert the raw HTRF data into [cAMP]. The concentration of cAMP was plotted against log [test compound] and the resulting curves were fit to a 3-parameter logistical equation using GraphPad Prism to determine pEC50 (the negative log of the EC50) and the magnitude of the response.

`CC(CCCC(=O)N1CCN(CC(=O)NC[C@H](O)[C@@H](O)[C@H](O)[C@H](O)CO)CC1)c1ccc(Cl)c(CNC2(c3cnccc3-c3ccccc3OC3CC3)CC2)c1` (stereo partly drawn) [Compound I-321, 2-[4-(5-{4-chloro-3-[({1-[4-(2-cyclopropoxyphenyl)pyridin-3-yl]cyclopropyl}amino)methyl]phenyl}hexanoyl)piperazin-1-yl]-N-[(2S,3R,4R,5R)-2,3,4,5,6-pentahydroxyhexyl]acetamide] and `CC(CCCCN(C)C(=O)NC[C@H](O)[C@@H](O)[C@H](O)[C@H](O)CO)c1ccc(Cl)c(CNC2(c3cnccc3-c3ccccc3OC3CC3)CC2)c1` (stereo partly drawn) [Compound I-269, 1-(5-{4-chloro-3-[({1-[4-(2-cyclopropoxyphenyl)pyridin-3-yl]cyclopropyl}amino)methyl]phenyl}hexyl)-1-methyl-3-[(2S,3R,4R,5R)-2,3,4,5,6-pentahydroxyhexyl]urea] cannot be ordered by EC50: < 100 nM for the first, < 100 nM for the second.

`CC(C)N(CCCCNC(=O)N[C@@H](CO)[C@@H](O)[C@H](O)[C@H](O)CO)S(=O)(=O)c1ccc(Cl)c(COC2(c3cnccc3-c3ccccc3OC3CC3)CCOC2)c1` (stereo partly drawn) [Compound I-749, 4-chloro-3-(((3-(4-(2-cyclopropoxyphenyl)pyridin-3-yl)tetrahydrofuran-3-yl)oxy)methyl)-N-isopropyl-N-(4-(3-((2S,3R,4S,5R)-1,3,4,5,6-pentahydroxyhexan-2-yl)ureido)butyl)benzenesulfonamide] and `O=C(CCCCNS(=O)(=O)c1ccc(Cl)c(COC2(c3cnccc3-c3ccccc3OC3CC3)CC2)c1)NC[C@H](O)[C@@H](O)[C@H](O)[C@H](O)CO` [Compound I-433, 5-[4-chloro-3-({1-[4-(2-cyclopropoxyphenyl)pyridin-3-yl]cyclopropoxy}methyl)benzenesulfonamido]-N-[(2S,3R,4R,5R)-2,3,4,5,6-pentahydroxyhexyl]pentanamide] cannot be ordered by EC50: < 100 nM for the first, < 100 nM for the second.

`O=C(O)CN1CCN(C(=O)CCCCc2cc(Cl)c(COC3(c4cnccc4-c4ccccc4OC4CC4)CC3)cc2Cl)CC1` [Compound I-88, 2-(4-(5-(2,5-dichloro-4-((1-(4-(2-cyclopropoxyphenyl)pyridin-3-yl)cyclopropoxy)methyl)phenyl)pentanoyl)piperazin-1-yl)acetic acid] and `CCS(=O)(=O)CCN(CCCCCc1cc(Cl)c(COC2(c3cnccc3-c3ccccc3OC3CC3)CC2)cc1Cl)C(=O)[C@@H](O)[C@@H](O)[C@H](O)[C@@H](O)CO` (stereo in doubt) [Compound I-227, (2S,3S,4R,5S)-N-{5-[2,5-dichloro-4-({1-[4-(2-cyclopropoxyphenyl)pyridin-3-yl]cyclopropoxy}methyl)phenyl]pentyl}-N-[2-(ethanesulfonyl)ethyl]-2,3,4,5,6-pentahydroxyhexanamide] cannot be ordered by EC50: < 100 nM for the first, < 100 nM for the second.

`CCS(=O)(=O)CCN(CCCC(C)c1ccc(Cl)c(CNC2(c3cnccc3-c3ccccc3OC3CC3)CC2)c1)C(=O)[C@@H](O)[C@@H](O)[C@H](O)[C@@H](O)CO` (stereo partly drawn) [Compound I-293, (2S,3S,4R,5S)-N-(4-{4-chloro-3-[({1-[4-(2-cyclopropoxyphenyl)pyridin-3-yl]cyclopropyl}amino)methyl]phenyl}pentyl)-N-[2-(ethanesulfonyl)ethyl]-2,3,4,5,6-pentahydroxyhexanamide] and `CCS(=O)(=O)CCN(CCCC(C)c1ccc(Cl)c(COC2(c3cnccc3-c3ccccc3OC3CC3)CC2)c1)C(=O)[C@@H](O)[C@@H](O)[C@H](O)[C@@H](O)CO` (stereo partly drawn) [Compound I-310, (2S,3S,4R,5S)-N-{4-[4-chloro-3-({1-[4-(2-cyclopropoxyphenyl)pyridin-3-yl]cyclopropoxy}methyl)phenyl]pentyl}-N-[2-(ethanesulfonyl)ethyl]-2,3,4,5,6-pentahydroxyhexanamide] cannot be ordered by EC50: < 100 nM for the first, < 100 nM for the second.

First: Clc1ccc(C2CC2)cc1COC1(c2cnccc2-c2ccccc2OC2CC2)CC1 [Compound I-53, 3-{1-[(2-chloro-5-cyclopropylphenyl)methoxy]cyclopropyl}-4-(2-cyclopropoxyphenyl)pyridine]
Second: O=C(NC[C@H](O)[C@@H](O)[C@H](O)[C@H](O)CO)NC1CCN(S(=O)(=O)c2ccc(Cl)c(COC3(c4cnccc4-c4ccccc4OC4CC4)CC3)c2)C1 (stereo partly drawn) [Compound I-429, 1-{l-[4-chloro-3-({1-[4-(2-cyclopropoxyphenyl)pyridin-3-yl]cyclopropoxy}methyl)benzenesulfonyl]pyrrolidin-3-yl}-3-[(2S,3R,4R,5R)-2,3,4,5,6-pentahydroxyhexyl]urea]
The EC50 of the first is lower: < 100 nM for the first, 126 to 1000 nM for the second.

First: O=C(CCCSc1ccc(Cl)c(COC2(c3cnccc3-c3ccccc3OC3CC3)CC2)c1)N(CCO)C[C@H](O)[C@@H](O)[C@H](O)[C@H](O)CO [Compound I-660, 4-{[4-chloro-3-({1-[4-(2-cyclopropoxyphenyl)pyridin-3-yl]cyclopropoxy}methyl)phenyl]sulfanyl}-N-(2-hydroxyethyl)-N-[(2S,3R,4R,5R)-2,3,4,5,6-pentahydroxyhexyl]butanamide]
Second: CC(CCSc1ccc(Cl)c(COC2(c3cnccc3-c3ccccc3OC3CC3)CC2)c1)C(=O)NC[C@H](O)[C@@H](O)[C@H](O)[C@H](O)CO (stereo partly drawn) [Compound I-690, 4-{[4-chloro-3-({1-[4-(2-cyclopropoxyphenyl)pyridin-3-yl]cyclopropoxy}methyl)phenyl]sulfanyl}-2-methyl-N-[(2S,3R,4R,5R)-2,3,4,5,6-pentahydroxyhexyl]butanamide]
The EC50 of the first is higher: 126 to 1000 nM for the first, < 100 nM for the second.

`O=C(NC[C@H](O)[C@@H](O)[C@H](O)[C@H](O)CO)c1ccc(CCc2ccc(Cl)c(COC3(c4cnccc4-c4ccccc4OC4CC4)CC3)c2)cn1` [Compound I-748, 5-(4-chloro-3-((1-(4-(2-cyclopropoxyphenyl)pyridin-3-yl)cyclopropoxy)methyl)phenethyl)-N-((2S,3R,4R,5R)-2,3,4,5,6-pentahydroxyhexyl)picolinamide] and `O=C(NCC1CCN(S(=O)(=O)c2ccc(Cl)c(COC3(c4cnccc4-c4ccccc4OC4CC4)CC3)c2)CC1)NC[C@H](O)[C@@H](O)[C@H](O)[C@H](O)CO` [Compound I-424, 1-({1-[4-chloro-3-({1-[4-(2-cyclopropoxyphenyl)pyridin-3-yl]cyclopropoxy}methyl)benzenesulfonyl]piperidin-4-yl}methyl)-3-[(2S,3R,4R,5R)-2,3,4,5,6-pentahydroxyhexyl]urea] cannot be ordered by EC50: < 100 nM for the first, < 100 nM for the second.

`Cc1cc(CNC2(c3cnccc3-c3ccccc3OC3CC3)CC2)c(Cl)cc1CCCCC(=O)NC[C@H](O)[C@@H](O)[C@H](O)[C@H](O)CO` [Compound I-142, 5-{5-chloro-4-[({1-[4-(2-cyclopropoxyphenyl)pyridin-3-yl]cyclopropyl}amino)methyl]-2-methylphenyl}-N-[(2S,3R,4R,5R)-2,3,4,5,6-pentahydroxyhexyl]pentanamide] and `C[C@@H](CCCCC(=O)N(C)C[C@H](O)[C@@H](O)[C@H](O)[C@H](O)CO)c1ccc(Cl)c(CNC2(c3cnccc3-c3ccccc3OC3CC3)CC2)c1` (single isomer, unassigned) [Compound I-328] cannot be ordered by EC50: < 100 nM for the first, < 100 nM for the second.

Compound `O=C([C@@H](O)[C@@H](O)[C@H](O)[C@@H](O)CO)N(CCCCSc1ccc(Cl)c(CNC2(c3cnccc3-c3ccccc3OC3CC3)CC2)c1)CCN1CCS(=O)(=O)CC1` [Compound I-557, (2S,3S,4R,5S)-N-[4-({4-chloro-3-[({1-[4-(2-cyclopropoxyphenyl)pyridin-3-yl]cyclopropyl}amino)methyl]phenyl}sulfanyl)butyl]-N-[2-(1,1-dioxo-1λ^6,4-thiomorpholin-4-yl)ethyl]-2,3,4,5,6-pentahydroxyhexanamide] has an EC50 of 126 to 1000 nM.
